From patent EP0241395A2, “Sweeteners derived from n-phenylguanidinoacetic and n-phenylethananamidinacetic acids, and compositions containing such sweeteners” (UNIVERSITE CLAUDE BERNARD - LYON 1, priority 1986, dated 1987)
Peptide text beside a SMILES is read from it.

Legend:
[1] = cited from earlier work
[2] = Stability in solution at pH 3 and 70 °C, remaining compound determined by HPLC; assay type: physicochemical; conditions: pH 3, phosphate buffer 1mM; for remaining at 168 h: 1 mm phosphate buffer, after seven days, read-out: composé restant
Description: Les agents édulcorants de la présente invention sont généralement stables. La stabilité est déterminée à pH 3 en solution dans un tampon phosphate 1mM à 70 °C. La concentration du composé restant est déterminée par chromatographie liquide haute pression (HPLC). Par exemple, après six jours dans de telles conditions, on retrouve encore la moitié du composé de l'exemple 14 dans lequel X4 est CN, X3, X5, R1, R3 et R4 sont H, A est N, et R2 est (S) CH (CH3) C6H5. On améliore la stabilité lorsque l'on remplace l'atome d'hydrogène de R1 par CH3. Ainsi, après sept jours dans les mêmes conditions , on retrouve encore 88 % du composé de l'exemple 31 dans lequel X3 et X5 sont Cl, X4, R3 et R4 sont H, A est N, R1 est CH3, et R2 est CH2C6H5. De la même manière, toujours après sept jours et dans les mêmes conditions, on retrouve 86 % du composé de l'exemple 33 dans lequel X4 est CN, X3, X5, R3 et R4 sont H, A est N, R1 est CH3, et R2 est CH2C6H5.

[3] = system: groupe de huit goûteurs expérimentés; assay: Sweetening power judged by a panel of eight experienced tasters against a sucrose reference solution; assay type: in vivo; conditions: weight basis; for Pouvoir édulcorant: Table II, relative to a 2 % sucrose solution; for pouvoir édulcorant, sur une base pondérale: approximate
Summary of the method: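 Panel of eight experienced tasters compared aqueous solutions of compound at varying concentrations with a sucrose reference at 2 %, sometimes 5 % and 10 %. Sweetening power is the weight ratio of sucrose to compound at equal sweetness intensity, as judged by a majority of tasters, and depends on the reference concentration.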

[4] = by comparison with a 2 % sucrose solution
[5] = by comparison with a 5 % sucrose solution
[6] = by comparison with a 10 % sucrose solution

Compound	Pouvoir sucrant (saccharose = 1) [1]	Pouvoir édulcorant [3]	pouvoir édulcorant, sur une base pondérale [3, 4]	further results
OC[C@@H](O)[C@H](O)[C@@H](O)CO [Xylitol]	1			
C[C@@H](NC(=O)[C@@H](N)CC(=O)O)C(=O)NC1C(C)(C)SC1(C)C [Alitame]	2000			
C[C@H](NC(=Nc1ccc(C#N)cc1)NCC(=O)O)c1ccccc1 [Exemple 14, acide N-[N-(S)-α-méthylbenzylamino (4-cyanophénylimino)méthyl]-2-aminoéthanoïque]		28000	~28 000 fois celui du saccharose	composé restant ([2]; after six days): la moitié; pouvoir édulcorant, sur une base pondérale [3, 5]: ~20 000 fois celui du saccharose; pouvoir édulcorant, sur une base pondérale [3, 6]: ~10 000 fois celui du saccharose
OC[C@H]1O[C@H](O[C@]2(CCl)O[C@H](CCl)[C@@H](O)[C@@H]2O)[C@H](O)[C@@H](O)[C@H]1Cl [Trichlorogalactosucrose]	2000			
CN(Cc1ccccc1)C(=Nc1cc(Cl)cc(Cl)c1)NCC(=O)O [Exemple 31, acide N-[N-méthyl-N-benzylamino (3,5-dichlorophénylimino)méthyl]-2-aminoéthanoïque]		20000	~20 000 fois celui du saccharose	remaining at 168 h [2]: 88%
CN(Cc1ccccc1)C(=Nc1ccc(C#N)cc1)NCC(=O)O [Exemple 33, acide N-[N-méthyl-N-benzylamino(4-cyanophénylimino)méthyl]-2-aminoéthanoique]		3000	~3 000 fois celui du saccharose	remaining at 168 h [2]: 86%; pouvoir édulcorant, sur une base pondérale [3, 5]: ~1800 times sucrose; pouvoir édulcorant, sur une base pondérale [3, 6]: ~1 200 fois celui du saccharose
O=C1NS(=O)(=O)c2ccccc21 [Saccharine]	400			
COc1ccc(CCC(=O)c2c(O)cc(O[C@@H]3O[C@H](CO)[C@@H](O)[C@H](O)[C@H]3O[C@@H]3O[C@@H](C)[C@H](O)[C@@H](O)[C@H]3O)cc2O)cc1O [Néohespéridine dihydrochalcone]	1000			
C=C1C[C@@]23CC[C@H]4[C@@](C)(CCC[C@@]4(C)C(=O)O[C@@H]4O[C@H](CO)[C@@H](O)[C@H](O)[C@H]4O)[C@@H]2CC[C@]1(O[C@@H]1O[C@H](CO)[C@@H](O)[C@H](O)[C@H]1O[C@@H]1O[C@H](CO)[C@@H](O)[C@H](O)[C@H]1O)C3 [Stévioside]	300			
Glycyrrhizine	50			
CC1=CC(=O)NS(=O)(=O)O1 [Acésulfame-K]	200			
Cyclamate de sodium	30			
COC(=O)[C@H](Cc1ccccc1)NC(=O)[C@@H](N)CC(=O)O [Aspartame] (H-Asp-Phe-OMe)	200			
Cc1ccc(NC(=Nc2ccc(C#N)cc2)NCC(=O)O)cc1 [Exemple 66, acide N-[N-(4-méthylphényl)amino(4-cyanophénylimino)méthyl]--2-aminoéthanoïque]		7000	~7 000 fois celui du saccharose	
Cc1cccc(N=C(NCC(=O)O)N[C@@H](C)c2ccccc2)c1 [Exemple 4, acide N-[N (S)-α-méthylbenzylamino (3-méthylphénylimino)méthyl]-2-aminoéthanoïque]		12000	~12 000 fois celui du saccharose	
C[C@H](NC(=Nc1cccc(C(F)(F)F)c1)NCC(=O)O)c1ccccc1 [Exemple 3]		7 500	~7 500 fois celui du saccharose	
